Where a name gives a salt, the structure may show the parent alone. Read-outs that look alike come from different tables or passages of the source.
How the values were obtained:
[1] = system: HCT116 cells; experiment: Inhibitory effect against cancer cell proliferation (MTT); assay type: cell-based, human; conditions: Homo sapiens, read-out: IC50 (uM) @ HCT116
Protocol: The formazane crystals thus formed were dissolved using dimethyl sulfoxide (DMSO) and absorbance of the solution was measured at 560 nm. After culturing for 48 hours, […] synthesized in Examples was indicated as cell viability (%) according to each treated concentration.

[2] = system: AMPKa [pT172]; experiment: AMPKa activation [pT172] in MCF7 cell; assay type: cell-based

Compound | IC50 ([1]; HCT-116, HCT116, MTT, 48 hours) | AMPKa activation [pT172] (Unit/ml) @ MCF7 cell ([2]; 5 uM) | AMPKa activation [pT172] (Unit/ml) @ MCF7 cell ([2]; 10 uM) | AMPKa activation [pT172] (Unit/ml) @ MCF7 cell ([2]; 50 uM) | IC50 ([1]; HCT-116, 48 h)
C=CCNC(=N)NC(=N)N.Cl [Example 111, N1-(2-prophene) Biguanide Hydrochloride] | 35.7 µM | 11.4 Unit/ml | 12.1 Unit/ml | 30.2 Unit/ml | 
Cl.N=C(NC(=N)N1CCCC1)Nc1ccc(F)c(Cl)c1 [Example 77, N1-pyrrolidin-N5-(3-chloro-4-fluoro)phenyl Biguanide Hydrochloride] | 50.6 µM | 4.5 Unit/ml | 5.7 Unit/ml | 13.9 Unit/ml | 
CN1CCN(C(=N)NC(=N)Nc2cccc(F)c2)CC1.Cl [Example 28, N1-(4-methyl)piperazin-N5-(3-fluoro)phenyl Biguanide Hydrochloride] | > 100 µM | 7.7 Unit/ml | 9.2 Unit/ml | 7.9 Unit/ml | 
CC1CCCN(C(=N)NC(=N)Nc2cccc(C(F)(F)F)c2)C1.Cl (stereo not drawn) [Example 51, N1-(3-methyl)piperidin-N5-(3-trifluoromethyl)phenyl Biguanide Hydrochloride] | 6.6 µM | 12.5 Unit/ml | 15.2 Unit/ml | cell death | 
CC1CCN(C(=N)NC(=N)NCc2cccc(C(F)(F)F)c2)CC1.Cl [Example 60, N1-(4-methyl)piperidin-N5-(3-trifluoromethyl)benzyl Biguanide Hydrochloride] | 15.4 µM | 4.6 Unit/ml | 7.8 Unit/ml | 20.9 Unit/ml | 
CC1CCN(C(=N)NC(=N)Nc2ccc(C(F)(F)F)c(F)c2)CC1.Cl [Example 57, N1-(4-methyl)piperidin-N5-(3-fluoro-4-trifluoromethyl)phenyl Biguanide Hydrochloride] | 2.5 µM | 6.7 Unit/ml | 12.1 Unit/ml | cell death | 
CC(C)N(C(=N)NC(=N)N)C(C)C.Cl [Example 115, N1,N1-diisopropyl Biguanide Hydrochloride] | > 100 µM |  |  | 4.8 Unit/ml | 
CN1CCN(C(=N)NC(=N)Nc2ccc(Cl)c(Cl)c2)CC1.Cl [Example 37, N1-(4-methyl)piperazin-N5-(3,4-dichloro)phenyl Biguanide Hydrochloride] | 32.8 µM | 5.8 Unit/ml | 7.5 Unit/ml | 15.0 Unit/ml | 
CCOC1CCN(C(=N)NC(=N)Nc2cccc(C(F)(F)F)c2)CC1.Cl [Example 24, N1-(4-ethoxy)piperidin-N5-(3-trifluoromethyl)phenyl Biguanide Hydrochloride] | 11.5 µM | 5.2 Unit/ml | 4.7 Unit/ml | cell death | 
CC(=O)c1ccc(NC(=N)NC(=N)N2CCCC2)cc1.Cl [Example 70, N1-pyrrolidin-N5-(4-acetyl)phenyl Biguanide Hydrochloride] | > 100 µM | 3.5 Unit/ml | 4.0 Unit/ml | 5.4 Unit/ml | 
Cl.N=C(N)NC(=N)N1CCCC1 [Example 126, N1-pyrrolidine Biguanide Hydrochloride] | > 100 µM | 6.1 Unit/ml | 6.4 Unit/ml | 10.7 Unit/ml | 
COc1ccc(CNC(=N)NC(=N)N)cc1 [Example 131, N1-(4-methoxy)benzyl Biguanide Hydrochloride] |  |  |  | 17.6 Unit/ml | > 100 µM
CC1CC(C)CN(C(=N)NC(=N)Nc2ccc(F)cc2)C1.Cl (stereo not drawn) [Example 64, N1-(3,5-dimethyl)piperidin-N5=(4-fluoro)phenyl Biguanide Hydrochloride] | 36.1 µM | 2.2 Unit/ml | 4.4 Unit/ml | 31.4 Unit/ml | 
CC(C)(C)N(Cc1ccccc1)C(=N)NC(=N)Nc1ccc(Cl)cc1.Cl [Example 10, N1-(4-chloro)phenyl-N5-t-butyl-N5-benzyl Biguanide Hydrochloride] | > 100 µM |  |  | 10.4 Unit/ml | 
Cl.N=C(NC(=N)N1CCCCC1)Nc1ccc(N2CCOCC2)cc1 [Example 71, N1-piperidin-N5-(4-morpholin-4-yl)phenyl Biguanide Hydrochloride] | > 100 µM | 3.8 Unit/ml | 4.3 Unit/ml | 5.8 Unit/ml | 
Cl.N=C(N)N/C(=N/C1CCCCCC1)NCc1ccc(Cl)cc1 [Example 98, N1-(4-chloro)benzyl-N2-cycloheptyl Biguanide Hydrochloride] | 49.2 µM | 7.2 Unit/ml | 9.6 Unit/ml | 37.5 Unit/ml | 
CC1CCN(C(=N)NC(=N)Nc2ccc(CCN)cc2)CC1.Cl [Example 69, N1-(4-methyl)piperidin-N5-(4-aminoethyl)phenyl Biguanide Hydrochloride] | > 100 µM | 5.6 Unit/ml | 4.7 Unit/ml | 5.3 Unit/ml | 
CCCN(CCC)C(=N)NC(=N)N(CCC)CCC.Cl [Example 16, N1,N1-dipropyl-N5N-dipropyl Biguanide Hydrochloride] | 45.9 µM | 7.0 Unit/ml | 9.4 Unit/ml | 13.6 Unit/ml | 
CC1CCN(C(=N)NC(=N)Nc2ccc(OC(F)(F)F)cc2)CC1.Cl [Example 52, N1-(4-methyl)piperidin-N5-(4-trifluoromethoxy)phenyl Biguanide Hydrochloride] | 6.8 µM | 9.4 Unit/ml | 15.0 Unit/ml | cell death | 
Cl.N=C(N)NC(=N)NCCc1ccc(O)cc1 [Example 138, N1-(4-hydroxy)phenethyl Biguanide Hydrochloride] | > 100 µM | 3.7 Unit/ml | 3.7 Unit/ml | 4.2 Unit/ml | 
CN(C(=N)NC(=N)N)C1CCCCC1.Cl [Example 135, N1-methyl-N1-cyclohexyl Biguanide Hydrochloride] | > 100 µM |  |  | 4.2 Unit/ml | 
CN1CCN(C(=N)NC(=N)NCc2cccc(Cl)c2)CC1.Cl [Example 35, N1-(4-methyl)piperazin-N5-3-chloro)benzyl Biguanide Hydrochloride] | > 100 µM |  |  |  | 
CN1CCN(C(=N)NC(=N)Nc2ccc(Cl)cc2)CC1.Cl [Example 27, N1-(4-methyl)piperazin-N5-4-chloro)phenyl Biguanide Hydrochloride] | > 100 µM |  |  |  | 
Cl.N=C(N)NC(=N)N1CCOCC1 [Example 118, Hydrochloride] | > 100 µM |  |  |  | 
CC1CCN(C(=N)NC(=N)Nc2ccc(Cl)cc2)CC1.Cl [Example 55, N1-4-methyl)piperidin-N5-(4-chloro)phenyl Biguanide Hydrochloride] | 10.4 µM |  |  |  | 
N=C(NC(=N)Nc1cccc(Br)c1)Nc1cccc(Br)c1 [Example 11, N1-(3-bromo)phenyl-N5-3-bromo)phenyl Biguanide Hydrochloride] | 4.8 µM |  |  |  | 
C/N=C(\NCc1ccccc1)NC(=N)N(C)C [Example 96, N1-benzyl-N2-methyl-N5,N5-dimethyl Biguanide Hydrochloride] | 8.2 µM |  |  |  | 
Cl.N=C(NC(=N)N1CCCC1)Nc1ccc(Br)cc1 [Example 72, N1-pyrrolidin-N5-4-bromo)phenyl Biguanide Hydrochloride] | 37.7 µM |  |  |  | 
CN1CCN(C(=N)NC(=N)Nc2ccc(F)c(F)c2)CC1.Cl [Example 38, N1-(4-methylpiperazin-N5-(3,4-difluoro)phenyl Biguanide Hydrochloride] | > 100 µM |  |  |  | 

Reference: US11572341B2, “Biguanide compound and use thereof” (ImmunoMet Therapeutics Inc., priority 2014, dated 2023)
